Assay [1] concerns the target T1, 380 human recombinant protein kinases (Homo sapiens, UniProt P25098).
T1 construct: purchased Eurofins (Celle Lévescault)
T1 sequence (P25098 1-689): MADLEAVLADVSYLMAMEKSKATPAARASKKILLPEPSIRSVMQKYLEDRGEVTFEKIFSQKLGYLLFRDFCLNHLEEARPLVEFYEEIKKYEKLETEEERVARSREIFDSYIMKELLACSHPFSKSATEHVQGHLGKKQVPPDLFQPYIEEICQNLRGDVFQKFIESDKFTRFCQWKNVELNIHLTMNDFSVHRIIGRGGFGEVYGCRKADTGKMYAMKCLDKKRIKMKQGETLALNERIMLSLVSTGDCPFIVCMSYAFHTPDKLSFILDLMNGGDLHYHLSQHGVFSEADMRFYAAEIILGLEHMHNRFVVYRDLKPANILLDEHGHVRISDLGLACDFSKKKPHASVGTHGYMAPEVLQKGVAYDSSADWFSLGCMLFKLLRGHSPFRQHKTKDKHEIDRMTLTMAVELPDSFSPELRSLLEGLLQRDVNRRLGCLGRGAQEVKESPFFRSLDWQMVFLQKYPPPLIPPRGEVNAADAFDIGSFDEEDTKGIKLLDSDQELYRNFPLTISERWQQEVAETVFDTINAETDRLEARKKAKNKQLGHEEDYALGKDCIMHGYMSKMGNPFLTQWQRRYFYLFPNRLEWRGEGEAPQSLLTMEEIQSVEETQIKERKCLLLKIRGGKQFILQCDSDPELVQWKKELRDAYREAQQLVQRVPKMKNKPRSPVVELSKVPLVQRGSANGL
Kind of assay: Eurofins kinase selectivity profile against 380 other human recombinant kinases (Table S2). The format is biochemical. As to conditions: GRK2(h), read-out: Inhibition rate. The essentials: (§1)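 Profiling against 380 human recombinant kinases carried out by Eurofins at various compound concentrations.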

Assay [2] concerns the target T2, 380 human recombinant protein kinases (Homo sapiens, UniProt P29323).
T2 construct: purchased Eurofins (Celle Lévescault)
T2 sequence (P29323 19-1055): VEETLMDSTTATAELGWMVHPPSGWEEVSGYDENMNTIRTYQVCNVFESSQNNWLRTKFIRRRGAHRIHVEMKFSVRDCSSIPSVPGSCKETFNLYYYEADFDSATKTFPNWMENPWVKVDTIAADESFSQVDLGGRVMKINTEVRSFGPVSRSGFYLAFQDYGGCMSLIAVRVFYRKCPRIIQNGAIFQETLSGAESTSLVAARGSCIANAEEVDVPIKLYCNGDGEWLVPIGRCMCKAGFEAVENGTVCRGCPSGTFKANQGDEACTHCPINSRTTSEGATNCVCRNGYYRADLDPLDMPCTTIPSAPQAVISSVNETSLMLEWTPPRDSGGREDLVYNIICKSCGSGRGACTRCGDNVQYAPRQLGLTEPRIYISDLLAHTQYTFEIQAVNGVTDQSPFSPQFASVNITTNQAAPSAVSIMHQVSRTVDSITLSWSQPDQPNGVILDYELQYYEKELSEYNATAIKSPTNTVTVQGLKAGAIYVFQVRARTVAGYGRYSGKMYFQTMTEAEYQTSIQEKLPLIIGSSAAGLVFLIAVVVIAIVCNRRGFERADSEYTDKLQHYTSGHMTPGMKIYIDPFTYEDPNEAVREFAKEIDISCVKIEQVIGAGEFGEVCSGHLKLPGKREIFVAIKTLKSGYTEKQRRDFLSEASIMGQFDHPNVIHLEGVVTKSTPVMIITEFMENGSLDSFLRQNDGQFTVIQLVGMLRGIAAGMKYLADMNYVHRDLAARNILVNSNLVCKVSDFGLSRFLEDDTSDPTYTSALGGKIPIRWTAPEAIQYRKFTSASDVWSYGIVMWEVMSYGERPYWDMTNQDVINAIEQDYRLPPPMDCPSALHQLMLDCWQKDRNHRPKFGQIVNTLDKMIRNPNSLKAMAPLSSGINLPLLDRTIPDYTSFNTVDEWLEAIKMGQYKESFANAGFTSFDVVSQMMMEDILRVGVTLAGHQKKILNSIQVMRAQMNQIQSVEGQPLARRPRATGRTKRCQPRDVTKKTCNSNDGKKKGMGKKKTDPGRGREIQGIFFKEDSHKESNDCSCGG
The assay is described as above. The class given is biochemical. As to conditions: EphB2(h), read-out: Inhibition rate. In outline:
as §1

Broadly, the inhibition is the relative decrease from the control value, in per cent. `C=CC(=O)Nc1cc(-c2cc(-c3cc4c([nH]3)CCNC4=O)ccn2)ccc1OC(F)(F)F` [compound 11]: the figures for the inhibition at 0.01 µM in assay [1] (10 nM) and in assay [2] (10 nM) were -6% and 5%, respectively. Further, the inhibition at 0.1 µM was -9% in assay [1] (100 nM) and -2% in assay [2] (100 nM). The inhibition at 1 µM in assay [1] (1000 nM) was -2%; in assay [2] (1000 nM) it was -14%.
